Data taken from publication PMC10182956 (Archives of Toxicology, 2023).

Experiments:
[1] = IVIVE reverse dosimetry: oral equivalent dose (OED) from BMC; settings: IVIVE derived median over all positive imaging endpoints; rabbit simulation (R script); Table 2
Source text: Human data were used except where otherwise stated. […]
mc_OED_MEN_LD <- calc_mc_oral_equiv(2.835, chem.cas="58-27-5", model = "3compartmentss",species = "Rabbit",return.samples = T, samples=1000, httkpop = T) mc_OED_MEN_NM <- calc_mc_oral_equiv(8.1, chem.cas="58-27-5", model = "3compartmentss",species = "Rabbit", return.samples = T, samples=1000, httkpop = T) quantile_OED_MEN_LD <- quantile(mc_OED_MEN_LD, c(0.05, 0.5, 0.95), na.rm = TRUE) quantile_OED_MEN_NM <- quantile(mc_OED_MEN_NM, c(0.05, 0.5, 0.95), na.rm = TRUE)

[2] = test system: HepaRG cells; experiment: cells; settings: Homo sapiens, 24 h, read-out: NM: Benchmark concentration (µM) per imaging endpoint calculated with BMDS software
Experimental: (§1) Cellular responses were quantified using a high-content imaging approach (Fig. 1). Based on cell viability assessment, concentrations below the EC50 level were tested in the high-content imaging assay. After 24 h chemical exposure, live cells were incubated with CellROX, which reflects hydroxyl radi [...

[3] = cited from earlier work
[4] = test system: HepaRG cells; experiment: High-content imaging assay: lipid accumulation (Bodipy lipid droplets); assay type: cell-based; settings: HepaRG 24 h
[5] = design: method as in Hu et al. 1996; settings: fraction unbound plasma; rabbit; ref Hu et al. 1996; cited from earlier work
[6] = design: method as in Literature column of Supplementary table 4; settings: value added to httk database; ref Supplementary table 4; cited from earlier work
[7] = test system: HepaRG cells; settings: HepaRG 24 h
Experimental: as §1

[8] = test system: HepaRG cells; settings: HepaRG 24 h, population level; threshold ± 2 standard deviations of the response at the two lowest concentrations
[9] = test system: HepaRG cells; experiment: Cell viability assessment (WST-1 assay); assay type: cell-based, human; settings: Homo sapiens, 24 h exposure, reference chemicals, 95% CI in brackets, read-out: EC50 µM (95% CI) from cell viability (WST-1)
Source text: Undifferentiated HepaRG cells were purchased from Biopredic international (Saint Grégoire, France). HepaRG cells have unlimited growth capacity and phenotypic stability, stable enzymatic activities over 4 weeks of cultivation, and similar metabolic function to primary human hepatocytes, and also avoid limitations of primary cells such as donor variability and phenotypic instability (Aninat et al. [2006]; Guillouzo et al. [2007]; Lambert et al. [2009]; Lübberstedt et al. [2011]; Andersson et al. [2012]). The line contains two cell types, hepatocyte-like and cholangiocyte-like cells (Parent et al. [2004]), which allows for elucidation of cell-specific toxicity (Jossé et al. [2008]). Cells were seeded at a density of approximately 27′000 cells/cm^2 into a 150 × 25 mm petri dish and were cultured for 2 weeks in William’s E medium (cat. nr.: 32,551,020, ThermoFisher Scientific, Massachusetts, USA) supplemented with 2 mM glutamine, 10% (v/v) fetal bovine serum (FBS) good forte (cat. nr.: P40-47,500, PAN-Biotech, Aidenbach, Germany), 100 U/ml penicillin and 100 µg/ml streptomycin (cat. nr.: 15,140,122, ThermoFisher Scientific, Massachusetts, USA), 5 µg/ml Gibco recombinant AOF insulin (cat. nr.: A11382II, ThermoFisher Scientific, Massachusetts, USA) and 50 µM hydrocortisone hemisuccinate (cat. nr.: H4881, Sigma-Aldrich, St. Louis, USA) at 37 °C and 5% CO2. Differentiation was induced by culturing the cells for another 2 weeks in the above mentioned medium supplemented with 1.7% DMSO. After 4 weeks in culture, differentiated HepaRG cells were seeded at a high density of approximately 227′000 cells/cm^2 (72,000 cells/well with 100 µl per well) into black 96-well plates with a clear bottom (cat.nr.: 3603, Corning, New York, USA) and maintained for 10 days. After 10 days, cells were first adapted to treatment medium (culture medium containing 0.5% DMSO and 2% FBS) for 48 h and then used for cell viability and high-content imaging analysis.
Cell viability was analyzed using the WST-1 assay which is based on the measurement of mitochondrial dehydrogenase activity (cat. nr: ab155902, Abcam, Cambridge, UK). HepaRG cells were exposed to chemicals at defined concentrations for 24 h. Triton X-100 (0.01%) was a positive control. One hour before the end of incubation period, 10 µl of WST-1 reagent was added to each well, quickly mixed by shaking the plate, and returned to the cell culture incubator (37 °C, 5% CO2). After 1 h, absorbance was measured (450 nm, reference wavelength 620 nm) using a plate reader (Infinite M200 Pro, Tecan group, Männerdorf, Switzerland). Absorbance was then subtracted from the reference wavelength, corrected for background by subtracting values measured without cells, and then normalized to the solvent control, which was set to 100%. Dose–response data were fitted using drc package (Version 3.0.1) (Ritz et al. [2015]) in R 3.6.1. Data were from at least 3 independent experiments with 6 technical replicates per condition.

[10] = Published in vivo pharmacokinetics (Css, clearance); settings: hepatocytes (back-calculated, no incubation); in vitro intrinsic hepatic clearance calculated from in vivo clearance with formula 3; rabbit; read-out: Calculated Clint (ul/min/10^6 cells)
Source text: For the model evaluation, Css of selected reference chemicals were predicted using formula 1 with the same dose rate from the in vivo Css measurements. For chemicals with no in vitro intrinsic hepatic clearance and fraction unbound values available in the database included in the httk package, in silico predictions from (Sipes et al. [2017]) were loaded using load_sipes2017(). […]. The formula to calculate Clint was derived from the function calc_hepatic_clearance within the httk package. Predicted Css values were then compared to published in vivo Css values. If there was no published in vivo Css available, Css was then calculated based on published in vivo pharmacokinetic parameters using the following formula (Supplementary table 3)4 Css(mg/L)=(Dose×F)/(Cl×dosinginterval)
Supplementary table 3. Comparison of benchmark concentration and predicted Css with published pharmacokinetic values. Where indicated, in vivo derived Css values were calculated using following formula: Css = (Dose*F)/(Cl*dosing interval) or Css = k0/Cl with F = bioavailability, Cl = clearance, k0 = infusion rate and Css = steady state concentration.

CC1=CC(=O)c2ccccc2C1=O [menadione]
OED [1]: 55.4 mg/kg/day
EC (BMC) [2]: 8.1 µM
In vivo Css (µM) ([3]; in rabbits, reference cell empty): 12.6^4 µM
In vivo clearance ([3]; rabbit, ref Hu et al. 1996): 49.32 L/h
Lipid accumulation response (in words) ([4]; population level, threshold ± 2 standard deviations of the response at the two lowest concentrations): increased in a dose-dependent manner
EC (BMC, 1 SD from control) ([4]; Homo sapiens, lipid accumulation, Supplementary table 3, read-out: LA: Benchmark concentration (µM) per imaging endpoint calculated with BMDS software): 2.8 µM
Fup [5]: 0.2
LogP [6]: 2.2
Concentration at which increase of number of apoptotic cells (nuclear morphology) exceeded the threshold [7]: 25 µM
Oxidative stress response (in words) [8]: unexpected negative outcomes
EC50 [9]: 59.1 µM
hepatocyte CLint [10]: 58.3 µL/min/1e6 cells
